Test results: patent publication US10526317B2, “Benzocyanine compounds” (PIERCE BIOTECHNOLOGY, INC., priority 2012, dated 2020)
“Also recorded” adds a separate entry of the source.

How the values were obtained:
[1] = test system: rabbit IgG immunoglobulin; assay: Functional fluorescence plate assay, dye-GAR conjugates; assay type: binding; conditions: LiCOR Odyssey, FIGS. 17, 19
Experimental: Performance of the dye-GAM conjugates, dye-GAR conjugates, and dye-SA conjugates was evaluated in a functional plate assay. Wells of a 96 white opaque plate or black clear-bottom plate were coated with target proteins mouse IgG immunoglobulin, rabbit IgG immunoglobulin, or biotinylated bovine serum albumin (BBSA). One hundred μl mouse or rabbit IgG, or BBSA at a concentration of 10 μg/ml was applied to the corresponding wells in columns 1 and 2. The target proteins were serially diluted 1:1 from the wells in columns 2 to 11 using 100 μl PBS. One hundred μl of the samples from the wells in column 11 were discarded. One hundred μl PBS was added to the wells in column 12. The plates were incubated overnight at 4° C. and then blocked 2×200 μl with Thermo Scientific SuperBlock® Blocking Buffer. The coated plates were washed 2×200 μl with PBS-Tween and 1×200 μl with PBS. Based on the calculated concentrations, conjugates were diluted 1:250 in PBS, added to the corresponding plates (100 μl/well) and then incubated for one hour in the dark. The plates were washed with 2×200 μl with PBS-Tween and 1×200 μl with PBS and filled with PBS buffer (100 μl/well) prior to scanning the white opaque plates on Tecan Safire using 679 nm excitation/702 nm emission or scanning the black clear-bottom plates on LiCor Odyssey at 700 channel, to detect fluorescence intensity.

lamin A [2] = assay: Immunofluorescence detection of lamin A in U2OS cells, dye-GAM secondary (FIG. 29A-C and repeat); assay type: cell-based, human; conditions: for Mean Total Intensity, Negative control: no primary antibody
Experimental: In the indicated experiments, the inventive compounds and commercial dye were evaluated for immunofluorescence in a cell based assay using the following protocol. Frozen U20S cell plates which were stored at −80° C. were thawed for 45 minutes at 50° C. Storage buffer (PBS) was removed and the cells were permeabilized for 15 minutes with 0.1% Triton-X100 in 1×PBS buffer (100 μl/well). The cell plate was blocked for 60 minutes in 2% BSA/PBS-0.1% Triton-X100. Primary antibody, either rat anti-Grp94 (5 μg/ml), mouse anti-lamin A (10 μg/ml), or rabbit anti-lamin B1 (10 μg/ml), diluted in 2% BSA/PBS-0.1% Triton-X100 was added to the plate and incubated for 1 hour at room temperature. Control wells contained only 2% BSA/PBS-0.1% Triton-X100 blocker. After incubation, the antibody solution was removed from the plate and the plate was washed three times with 100 μl/well of PBS-0.5% Tween-20 and one time with 100 μl/well PBS. GARat, GAM, or GAR secondary antibodies labeled with various molar excess of the inventive or commercial compound were diluted to 4 μg/ml in PBS and incubated for 1 hour at room temperature. The plates were washed three times with 100 μl/well of PBST and once with 100 μl/well PBS, and Hoechst (diluted to 0.1 μg/ml in PBS) was added to each well (100 μl/well). The plates were scanned on ArrayScan Plate Reader or ToxInsight Instrument.
Quantitative analysis of a repeat experiment of FIG. 29A-C are shown below.

[3] = Absorption/emission profiles and spectral properties of the dyes; assay type: physicochemical
Experimental: The following properties of 679 Compound 1-NHS were compared with commercially available dyes.
Emission/excitation profiles for inventive and commercial compounds was determined by reconstituting the compounds in DMF at 10 mg/ml and then diluting in PBS buffer pH 7.2 to 10 μg/ml. Absorbance spectra were collected on Cary UV spectrophotometer and emission spectra were collected on Tecan Safire, shown in FIG. 1 where solid lines represent absorbance spectra and dashed lines represent emission spectra, for DyLight 680-NHS (purple), DyLight 680B-NHS (blue), 679 Compound 1-NHS (red), and Company B Compound-NHS (black). The maximum absorbance and emission for each compound is shown below.
The following properties of 679 Compound 1-NHS, 679 Compound 4/4-NHS (V08-15173), and 679 Compound 4/4-NHS (V10-04152) were compared with commercially available dyes.

lamin A [4] = assay: Immunofluorescence of nuclear envelope in U2OS cells, mouse anti-lamin A, dye-GAM (FIG. 43); assay type: cell-based, human; conditions: FIG. 43A
Experimental: U2OS (human bone cancer) or HeLa cells were seeded at 5,000 cells per well in 96-well plates and incubated for 18-20 hours at 37° C., 5% CO2 in a humidified incubator. The cells were fixed with 4% paraformaldehyde and permeabilized with 0.1% Thermo Scientific Surfact-Amps X-100 Detergent, then blocked for nonspecific IgG binding. Cells were incubated with a target-specific primary antibody for 30 minutes at room temperature (RT). After washing with PBS containing 0.05% Tween™-20 Detergent Solution, cells were incubated for 30 minutes at RT with 4 μg/mL of the appropriate secondary antibody conjugated with 679 Compound 4/4 and compared to similarly conjugated counterparts (DyLight 680, Alexa Fluor™ 680, and CF™ 680 Dyes) for 30 minutes at RT. The conjugates were affinity purified goat anti-mouse IgG (H+L) (GAM) or goat anti-rabbit IgG (H+L) (GAR). […] Microscopy time lapse experiments to measure dye photostability were performed using the appropriate shift-free optical filter set with a 40×/1.3 oil objective on a Zeiss Axio Observer™ .Z1 fluorescence microscope using an ORCA-ER-1394 Hamamatsu, CCD Digital Camera and the AxioVison™ Release 4.7 Software. […]
The nuclear envelop in U2OS cells was fluorescently labeled with mouse anti-lamin A primary antibody and detected with goat anti-mouse conjugated to 679 Compound 4/4-NHS, DyLight 680-NHS, Alexa Fluor 680-NHS and CF 680-SE Dyes. […]

[5] = In vivo biodistribution and clearance of free dye; design: species or system nude mice; conditions: 100 μL of 1 mg/mL hydrolyzed dye IV via retro orbital plexus, imaged to 24 h
Experimental: In in vivo biodistribution, the mice received intravenous dye injections via the retro orbital plexus and were imaged on a Carestream MSFX Imager (690 nm excitation/750 nm emission) before injection and at 0 h, 3 h, 6 h, 12 h, and 24 h post injection. After the final time point, animals were sacrificed and organs were collected for ex vivo imaging. Toxicity was evaluated by investigating the dissected tissue section.
Biodistribution and clearance was investigated in the live animals over time by measuring the clearance or specific retention of the dye/labeled target. Experiments were performed in triplicate on nude mice. 100 μL of 1 mg/mL hydrolyzed dye solution was IV injected via the retro orbital plexus. Animals were imaged using 690 nm excitation and 750 nm emission at 140 mm FOV on a Carestream XTREME (10 s) Imager. Images taken before (pre) and at 0 min, 10 min, 30 min, 1 hour, 3 hour, 6 hour, 12 hour and 24 hours post injection are shown in FIG. 44B. After the final time point, the organs were collected for ex vivo imaging to confirm and quantify accumulation of the agent in tumors, tissues, and other organs (heart, liver, spleen, GI tract, lungs and kidney), as shown in FIG. 44C using triplicate mice. 679 Compound 4/4 allowed for probe conjugation, high fluorescence with excellent sensitivity for deep-tissue in vivo imaging, and target quantification in tissues.

[6] = Dye toxicity, H&E histology of heart, liver, spleen, lungs, kidney; assay type: in vivo; conditions: H&E staining of tissues after 24 h
Experimental: After the final time point, animals were sacrificed and their organs collected for ex vivo imaging to confirm and quantify dye accumulation in tumors, tissues, and other organs such as heart, liver, spleen, GI tract, lungs, and kidney. Images were taken before (pre), and at 0 min, 10 min, 30 min, 1 hour, 3 hour, 6 hour, 12 hour, and 24 hour post injection. To test dye toxicity, heart, liver, spleen, lungs and kidney tissues were gathered from one mouse from each cohort, fixed, stained with hematoxylin and eosin (H&E), and evaluated.
Colorimetric images were acquired at 20× on a Nikon 90i microscope.

[7] = Photobleaching without anti-fade, U2OS cells stained with lamin B1/dye-conjugated GAR; assay type: physicochemical
Experimental: Photobleaching of inventive and commercial compounds without anti-fade reagent was examined. U2OS cells stained with lamin B1/dye-conjugated GAR were exposed to bright light (3.4V) for 8 sec at intervals of 1 sec, the overall capture amounting to a total of about 15 min using the TR filter Obj.: 20× NA: 0.4 on the Zeiss Axio Observer .Z1 microscope. The image stacks collected from the time-lapse experiment were analyzed using ImageJ software to determine the decay rate of fluorescence intensity. The raw intensity was normalized to initial intensity for each conjugate and the photobleaching curve was plotted against time, as shown in FIG. 48. Immunostaining with 679 Compound 4/4 conjugate had shown about 2 to 3-fold brighter staining intensity compared to DyLight 680 Dye.

lamin A [8] = assay: Immunofluorescence, U2OS cells, mouse anti-lamin A, dye-GAM secondary (FIG. 25); assay type: cell-based, human
Experimental: The inventive compounds and commercial dye were evaluated for immunofluorescence in a second cell based assay using the following protocol. Frozen U20S cell plates stored at −20° C. were placed overnight at 4° C. Storage buffer (PBS) was removed and the cells were permeabilized for 15 min (100 μl/well) with 0.1% Triton-X100 in 1×PBS buffer. Plates were blocked for 30 min in 2% BSA in 1× PBS-0.1% Trion-X100. Primary antibodies diluted in 2% BSA in 1×PBS-0.1% Trion-X100 were added to the plates (column 1-11; column 12 included only blocker) and incubated five hours at room temperature. Mouse anti-lamin A was added at 2 μg/ml and rabbit anti-lamin B1 was added at 4 μg/ml. After incubation, the antibody solution was removed from the plates and the plates were washed PBS-0.5% Tween-20 (2×100 μl/well). Next, GAM and GAR secondary antibodies labeled with DyLight 680-NHS, DyLight 680B-NHS, 679 Compound 1-NHS, and Cy5.5 Mono Ester were diluted to 4 μg/ml in PBS and incubated with the cells for one hour at room temperature. […], DyLight 680B-NHS, 679 Compound 1-NHS, […] PBS and then serially diluted 1:1 in the plate to the following concentrations: 2 μg/ml, 1 μg/ml, 0.5 μg/ml, 0.25 μg/ml, 0.125 μg/ml and/or 0.0625 μg/ml. The plates were washed 3× with 100 μl/well PBS, and Hoechst stain diluted to 0.1 μg/ml in PBS was added to each well (100 μl/well). The plates were scanned on ArrayScan Plate Reader for imaging and quantitation.
Quantitative analysis of FIG. 25 data, expressed as Mean Total Intensity, which is the average total intensity of all pixels within a defined area or defined primary object such as a nucleus, is shown below.

COCC[N+]1=C(/C=C/C=C/C=C2/N(CCCCCC(=O)O)c3ccc4c(S(=O)(=O)[O-])cc(S(=O)(=O)[O-])cc4c3C2(C)C)C(C)(CCCS(=O)(=O)[O-])c2c1ccc1c(S(=O)(=O)[O-])cc(S(=O)(=O)[O-])cc21.[Na+].[Na+].[Na+].[Na+] (centres unmarked) [679 Compound 1/1, 2-{(1E,3E)-5-[3-(5-Carboxypentyl)-1,1-dimethyl-6,8-disulfo-1,3-dihydro-benzo[e]indol-(2E)-ylidene]-penta-1,3-dienyl}-3-(2-methoxy-ethyl)-1-methyl-6,8-disulfo-1-(3-sulfopropyl)-1H-benzo[e]indolium]
Raw Fluorescence Intensity, quenching at high molar excess (in words) [1]: saturating at 25×; also recorded: apparent quenching at 1000 ng/well at 25× | Mean Total Intensity (Average) (lamin A [2]; GAM conjugate 4 μg/ml, 2.5 X molar excess): 29229 | Mean Total Intensity (Average) (lamin A [2]; GAM conjugate 4 μg/ml, 5.0 X molar excess): 49279 | Mean Total Intensity (Average) (lamin A [2]; GAM conjugate 4 μg/ml, 7.5 X molar excess): 28782 | Mean Total Intensity (Average) (lamin A [2]; GAM conjugate 4 μg/ml, 10 X molar excess): 30098 | Mean Total Intensity (Average) (lamin A [2]; GAM conjugate 4 μg/ml, 15 X molar excess): 48071 | Mean Total Intensity, Negative control (lamin A [2]; 2.5 X): 5628 | Mean Total Intensity, Negative control (lamin A [2]; 5.0 X): 5859 | Mean Total Intensity, Negative control (lamin A [2]; 10 X): 6115 | Mean Total Intensity, Negative control (lamin A [2]; 15 X): 7277 | S/B (lamin A [2]; repeat experiment, 2.5 X): 8.9 | Mean Total Intensity (Average) (lamin A [2]; repeat experiment, 2.5 X molar excess): 77195 | S/B (lamin A [2]; repeat experiment, 5 X): 16.2 | Mean Total Intensity (Average) (lamin A [2]; repeat experiment, 5 X molar excess): 140772 | S/B (lamin A [2]; repeat experiment, 10X): 7.8 | Mean Total Intensity (Average) (lamin A [2]; repeat experiment, 10X molar excess): 159948 | S/B (lamin A [2]; repeat experiment, 15 X): 12.3 | Mean Total Intensity (Average) (lamin A [2]; repeat experiment, 15 X molar excess): 199626 | Mean Total Intensity, Negative control (lamin A [2]; repeat experiment, 2.5 X): 8711 | Mean Total Intensity, Negative control (lamin A [2]; repeat experiment, 5 X): 8674 | Mean Total Intensity, Negative control (lamin A [2]; repeat experiment, 10X): 20481 | Mean Total Intensity, Negative control (lamin A [2]; repeat experiment, 15 X): 16277

COCCOCCOCCOCC[N+]1=C(/C=C/C=C/C=C2/N(CCOCCOCCOCCOCCC(=O)O)c3ccc4c(S(=O)(=O)[O-])cc(S(=O)(=O)O)cc4c3C2(C)CCOCCOCCOCCOC)C(C)(CCOCCOCCOCCOC)c2c1ccc1c(S(=O)(=O)O)cc(S(=O)(=O)O)cc21 (centres unmarked) [679 Compound 4/4]
emits at [3]: 706 nm | excites at [3]: 684 nm | staining intensity, fold brighter compared to DyLight 680-GAM, Alexa Fluor 680-GAM and CF 680-GAM (lamin A [4]): 2-3 fold | biodistribution and clearance (in words) [5]: rapid clearance through kidney and/or gastrointestinal tract; also recorded: fast whole-body dye uptake and displayed rapid dye clearance mainly through the kidney and GI tract | toxicity (in words) [6]: low intrinsic toxicity; also recorded: No tissue damage was observed from histology | photostability (in words) ([7]; absence of anti-fade agent): slightly less stable than DyLight 680 dye | staining intensity, fold brighter compared to DyLight 680 Dye ([7]; immunostaining): 2 to 3 fold

Cy5.5
Mean Total Intensity (lamin A [8]; GAM conjugated at 2X molar excess): 211945 | Mean Total Intensity (lamin A [8]; GAM conjugated at 3X molar excess): 342208 | Mean Total Intensity (lamin A [8]; GAM conjugated at 4X molar excess): 451111
